# Test results as given in patent US7824847B2, “Tissue preservation method with polyoxyethylene/polyoxypropylene copolymer” (Regents of the University of California, priority 2003, dated 2010).
# Test system: bovine corneal endothelial cells
# Assay: Evaluation of the endothelial cell layer in bovine corneas stored in preservation media at 4° C. (Calcein AM viability staining)
# Type: cell-based
# Details: DMSO at 0.5%
# Protocol: Evaluations of the endothelial cell layer in bovine corneas in different media. post-incubation survival utility or usefulness for transplantation is defined as less than 3% dying and less than 1.5% missing. Missing cells leave a gap in the layer; calcein-AM staining for esterase activity is used to determine cell health. Transplant surgeons typically use missing cell counts and morphology alone as the index of health and post-incubation survival utility.
# Bovine eyes were obtained from Rancho Veal, Petaluma, Calif. Two to 3 hours elapsed between death of the cattle and excision of the cornea with a 1 to 2 millimeter (mm) scleral rim from the enucleated eyes. […]
# The viability of the corneal endothelium was quantified with the vital stain Calcein AM (Molecular Probes, Eugene, Oreg.). The hydrophobic and non-fluorescent Calcein AM readily diffuses across the plasma membrane and into the cytoplasm. […] The bright nuclei are easily counted. […] A Zeiss IM-35 inverted fluorescence microscope (Thornwood, N.Y.) equipped with excitation and emission filters for Green Fluorescent Protein (filter set XF100-2 from Omega Optical, Brattleboro, Vt.) was used to illuminate the half cornea. […]
# For analysis, each photograph was overlaid with a sheet of transparency film. A felt-tip lab pen was used to mark cells as they were counted and scored as bright (live), dim (dying), or dark (dead or missing). […]
compound,measurement,value
"C[S+](C)[O-] [DMSO, dimethylsulfoxide]",effect on corneal endothelial cell survival,no effect
